Drawing on ChEMBL document CHEMBL1153788, “Bioactive diterpene derivatives from the marine sponge Spongionella sp” (J Nat Prod, 2009), this text covers IC50 for three molecules.

The term IC50 denotes the midpoint of a concentration-inhibition curve.

The test system of assay [1] is PBMC. In words: Cytotoxicity against human PBMC cells assessed as decrease in luminescence after 24 hrs by luminescent cell viability assay. It is filed as cell-based.
Assay [2] deals with K562. Nature of the assay: Cytotoxicity against human K562 cells assessed as decrease in luminescence after 24 hrs by luminescent cell viability assay. The format is functional, cell-based. Conditions: K562, 24 h.

Each structure is given as a SMILES string.

For the molecule `CC(=O)O[C@@H]1O[C@H]2OC(=O)[C@H](C)C3=C([C@@]4(C)CCCC(C)(C)C4)CC[C@@H]1[C@H]32`, the IC50 in assay [1] was found to be 4.5 µM; in assay [2], 2.3 µM.
Turning to `CC(=O)O[C@H]1O[C@H]2O[C@H]3OC(=O)/C(=C\CC4(OC(C)=O)CCCC(C)(C)C4)[C@H]3[C@H]2[C@@H]1OC(C)=O` (stereo partly specified) [GRACILIN J], the IC50 was found to be 30 µM in assay [1] and 15 µM in assay [2].
Consider `CC(=O)O[C@H]1O[C@H]2O[C@H]3OC(=O)/C(=C\C4CCCC(C)(C)C4)[C@H]3[C@H]2[C@@H]1OC(C)=O` (stereo partly specified) [GRACILIN K], for which the values for the IC50 in assay [1] and in assay [2] were 9 µM and 8.5 µM, respectively.
